Where a SMILES comes first, the peptide text is derived from it. Bridges are numbered along the chain shown (N, C = ends). [ ]: non-standard residue; d: D form. Tic = O=C(O)[C@@H]1Cc2ccccc2CN1; Pen = CC(C)(S)[C@H](N)C(=O)O; Mpa = O=C(O)CCS
Key:
[1] = tested on: αV β3 integrin, osteoclasts; test: series of assays of Example II for potency and selectivity (summary, FIG. 2)
Description: Peptides of the RGDNTic (SEQ ID NO: 56) pharmacophore group are characterized, in general, as having increased potency, whereas the peptides of the pharmacophore RGDDV (SEQ ID NO: 1) group generally have higher receptor selectivity. […] As used herein, the term "potency" or "potent" means that a peptide of the invention is active at a relatively low concentration in the assays described in Examples II and III. A potent peptide of the invention can be identified, for example, using the assays described in Examples II and III.
Selectivity can be due, for example, to the ability of a peptide of the invention to bind to αV β3 with greater affinity than it binds to other integrins. Thus, in addition to having selectivity, for example, for osteoclast binding to a matrix, a peptide of the invention also can display receptor selectivity and, therefore, more specifically alter receptor-mediated binding to a matrix. As used herein, the term "receptor selectivity" means that a peptide of the invention can bind to one receptor with greater affinity than it can bind to another receptor.

Swiss-Webster mice = test: PTH-induced hypercalcemia assay; format: in vivo; conditions: peptide infused 4 hr at various doses, 0.2 mg PTH/kg i.v., FIG. 9
Description: Parathyroid hormone (PTH) activates osteoclasts, which are involved in bone resorption. Associated with the increased osteoclast activity is an increase in serum calcium. The PTH-induced hypercalcemia assay measures the level of serum calcium, which is an indication of bone resorption in a subject (Fischer et al., Endocrinology 132:1411-1413 (1993), which is incorporated herein by reference).
Swiss-Webster mice, which had been parathyroidectomized two weeks prior to beginning the assay, were obtained from Taconic Lab Animals and Services (Germantown N.Y.). Femoral vein catheters (PE-50 fused with PE10 polyethylene tubing; Becton Dickinson; Parsippany, N.J.) were installed in the mice, flushed and locked with heparinized saline (1:10), sutured to adjacent muscle and internalized within the inguinal space of the incision before closing the incision with wound clips. […]
The experiment was initiated by feeding the mice a calcium-deficient diet overnight, then injecting the mice the following morning with a bolus of 0.2 mg PTH/kg (hPTH 1-34; Bachem; Torrance Calif.), intravenously. […] Various doses of a peptide or vehicle were infused into an animal for 4 hr, then ionized serum calcium again was measured. […] Serum calcium measurements were expressed as the difference between the value 30 min before the PTH pulse and 4 hr after peptide infusion was started. […]

[2] = half-life of peptide in serum; conditions: in vivo
Description: Increased stability of a disulfide bonded peptide of the invention also can be conferred by incorporating a hydrophobic amino acid residue such as phenylalanine at position X1 or X8 or both X1 and X8 in an RGDNTic (SEQ ID NO: 56) or RGDDV (SEQ ID NO: 1) pharmacophore as disclosed herein. The presence of such a residue can stabilize the disulfide bond against enzymatic degradation (see Bauer et al., Life Sciences 31:1133-1140 (1982)). […] In addition, the half-life of a peptide in a subject can be determined, for example, by high performance liquid chromatography (HPLC) of serum samples collected from the subject at various times following administration of the peptide. One skilled in the art would know how to select appropriate elution buffers for HPLC based on the physico-chemical properties of a particular peptide.

osteoclasts = conditions: cited from earlier work

Molecule: CC(C)[C@@H]1NC(=O)[C@H](CC(=O)O)NC(=O)[C@H](CC(=O)O)NC(=O)CNC(=O)[C@H](CCCNC(=N)N)NC(=O)[C@H](C)NC(=O)[C@H](CCCNC(=N)N)NC(=O)[C@@H](NC(=O)CN)C(C)(C)SSC[C@@H](C(=O)N[C@@H](C)C(=O)O)NC1=O [compound 138] (H-G[Pen]RARGDDVCA-OH; disulfide 2-10)
- potency and selectivity together (summary classification) [1]: both potent and selective
- receptor selectivity (summary classification) [1]: particularly receptor selective

Molecule: C[C@@H]1NC(=O)[C@H](C)NC(=O)[C@@H](NC(=O)CN)C(C)(C)SSC[C@@H](C(N)=O)NC(=O)[C@H]([C@@H](C)O)NC(=O)[C@H](CC(=O)O)NC(=O)[C@H](CC(=O)O)NC(=O)CNC(=O)[C@H](CCCNC(=N)N)NC1=O [compound 186] (H-G[Pen]AARGDDTC-NH2; disulfide 2-10)
- receptor selectivity (summary classification) [1]: particularly receptor selective

Molecule: CC(C)[C@@H]1NC(=O)[C@H](CC(=O)O)NC(=O)[C@H](CC(=O)O)NC(=O)CNC(=O)[C@H](CCCNC(=N)N)NC(=O)CCSSC[C@@H](C(N)=O)NC1=O [compound 191] ([Mpa]RGDDVC-NH2; disulfide 1-7)
- effect on PTH-induced rise in serum ionized calcium (Swiss-Webster mice): decreased the PTH-induced rise in serum ionized calcium in a dose responsive manner

Molecule: CC(=O)N[C@H]1CSSC(C)(C)[C@@H](C(N)=O)NC(=O)[C@@H]2CCCN2C(=O)[C@H](CC(N)=O)NC(=O)[C@H](CC(=O)O)NC(=O)CNC(=O)[C@H](CCCNC(=N)N)NC1=O [compound 228] (Ac-CRGDNP[Pen]-NH2; disulfide 1-7)
- receptor selectivity (summary classification) [1]: particularly receptor selective

Molecule: CC(=O)N[C@H]1CSSC[C@@H](C(N)=O)NC(=O)[C@@H]2Cc3ccccc3CN2C(=O)[C@H](CO)NC(=O)[C@H](CC(=O)O)NC(=O)CNC(=O)[C@H](CCCNC(=N)N)NC1=O [compound 812, Ac-CRGDS(Tic)Cs-NH2] (Ac-CRGDS[Tic]C-NH2; disulfide 1-7)
- potency (summary classification) [1]: particularly potent
- activity of peptides with minimally essential elements ([1]; FIG. 2): demonstrate activity

Molecule: CC(=O)N[C@@H](Cc1ccccc1)C(=O)N[C@H]1CSSC[C@@H](C(N)=O)NC(=O)[C@H](Cc2ccccc2)NC(=O)[C@H]([C@@H](C)O)NC(=O)[C@H](CC(=O)O)NC(=O)CNC(=O)[C@H](CCCNC(=N)N)NC1=O [peptide 220] (Ac-FCRGDTFC-NH2; disulfide 2-8)
- half-life in serum [2]: relatively long

Molecule: Echistatin
- binding to osteoclasts (osteoclasts): nonselective
